Measured values published in US6440417B1, “Antibodies to argatroban derivatives and their use in therapeutic and diagnostic treatments” (ConjuChem, Inc., priority 1998, dated 2002).

Legend:
plasma proteins = test: Western blot of plasma proteins derivatized in vitro with argatroban derivatives; conditions: human and rat whole blood, 100 μM, 30 minutes; bands from less than 39.5 kDa to greater than 193 kDa
Method: (§1) Whole blood samples were treated with argatroban derivatives to yield plasma proteins and red blood cells derivatized with argatroban. Fresh citrated human, rabbit (New Zealand) and rat (Sprague Dawley) whole blood samples were incubated with 100 μM (final concentration) Argatroban-C6-NHS, Argatroban-C16-Maleimide or DMSO, for 30 minutes at room temperature under gentle agitation. After quenching the reaction with 1 mM lysine or cysteine, the whole blood was centrifuged 10 min at 2500 rpm. Labelled plasma were recovered and stored at −20° C. until use. Labelled red blood cells (RBCs) were washed three times in PBS (5 min at 2500 rpm).
Labeled plasma were diluted 1/10 in water. Five μl of diluted plasma (·30 μg protein) were mixed with electrophoresis buffer and separated by SDS-PAGE using an 8% polyacrylamide gel, under non-reducing conditions. Plasma proteins were then transferred onto nitrocellulose sheet with a semi-dry transfer apparatus. Efficacy of transfer was checked by reversible staining with 1% Ponceau Red. The blot was saturated with tris-buffered saline (TBS) containing 5% gelatin and 0.1% Tween 20, for 2H at 37° C. to minimize non-specific binding. After three washes with TBS-1 % Tween 20 (TBS-T), the blot was incubated with rabbit anti-argatroban polyclonal serum from diluted 1/20,000 in TBS containing 1% gelatin and 0.1% Tween 20 (TBS-GT), for 1H30 at RT. […]

red blood cells = test: Flow cytometry of red blood cells derivatized in vitro with argatroban derivatives; assay type: cell-based, human, rabbit, rat; conditions: RBCs from whole blood incubated with 100 μM derivative, each sample
Method: as §1
After the last centrifugation, a 10% suspension of labelled red blood cells (RBCS) was made in PBS. Five μl of the suspension was mixed with rabbit anti-argatroban polyclonal sera from Example 4 diluted 1/500 in PBS-1% BSA and incubated at room temperature for 1 hour. After three washes in PBS, the RBCs were incubated with 50 μl of FITC-labeled goat anti-rabbit Ig (BioAtlantic, Nantes) diluted 1/50 in PBS-1% BSA for 1 hour in the dark. After three washes, the RBCs were resuspended in 0.5 ml PBS and fluorescence was detected by flow cytofluorometer (Becton Dickinson).

rat plasma proteins = test: Western blot of plasma from rats dosed in vivo; conditions: intravenous, 5 minutes and 24 hours after dosing
Method: Fifteen Sprague-Dawley rats weighing 250-300 grams were randomized for treatment with either argatroban and argatroban derivative. Rats treated with argatroban received dosages of either 3 or 10 mg/kg (n=6 and respectively) administered intravenously. […] A control group of rats was treated with intravenous injection of DMSO (0.2 ml/kg, n=3). The study was divided into two groups. Plasma samples were obtained from group 1 rats at time periods of 5 min, 15 min, and 24 hrs after injection. Plasma samples were obtained from group 2 rats at 1 hr, 3 hr and 24 hr following injection. […] The collected plasma samples from these rats were frozen for subsequent evaluation of the extent of conjugation to plasma proteins using ELISA and western blot analysis.
Plasma samples obtained from the rats were diluted 1:50 in PBS and then further diluted 1:1 with 2× Laemmli non-reducing buffer (Novex). The samples were boiled for 5 min. after which 25 ul of each sample were loaded per well of 8% acrylamide SDS-PAGE precast gel (10 lanes/1 mm gel, Novex). Samples were run in replicates for staining with Coomassie blue and for transfer to nitrocellulose.
Gels were run at a constant voltage of 120 V until the dye fronts reached the bottom of gels. […]

SMILES	protein bands identified in derivatized plasma samples (plasma proteins)	mean fluorescence signal relative to argatroban-maleimide derivatized cells (red blood cells) [times]	plasma protein labelling / association with anti-argatroban antisera (rat plasma proteins)
CC1CNc2c(cccc2S(=O)(=O)N[C@@H](CCCN=C(N)N)C(=O)N2CC[C@@H](C)C[C@@H]2C(=O)NCCCCCC(=O)ON2C(=O)CCC2=O)C1.Cl.Cl (stereo partly drawn) [argatroban-NHS]	Numerous protein bands	3 to 7	
CC1CNc2c(cccc2S(=O)(=O)N[C@@H](CCCNC(=N)N)C(=O)N2CC[C@@H](C)C[C@@H]2C(=O)O)C1 (stereo partly drawn) [argatroban]			minimal protein association
